Data reported in US9133181B2, “Substituted 6-(4-hydroxy-phenyl)-1H-pyrazolo[3,4-b]pyridine derivatives as kinase inhibitors” (SANOFI, priority 2012, dated 2015).

The molecules below were run against T1, human full-length recombinant PKC βII (Homo sapiens, UniProt P05771) (assay: Determination of PKC βII inhibition (Caliper mobility shift kinase assay)). Details: final compound concentration 1.14 μM (±0.15 μM); 60 min incubation at 32° C.
T1 construct: Active human full-length recombinant PKC βII; purchased Invitrogen GmbH, Darmstadt, Germany
T1 sequence (P05771 1-673 isoform P05771-2): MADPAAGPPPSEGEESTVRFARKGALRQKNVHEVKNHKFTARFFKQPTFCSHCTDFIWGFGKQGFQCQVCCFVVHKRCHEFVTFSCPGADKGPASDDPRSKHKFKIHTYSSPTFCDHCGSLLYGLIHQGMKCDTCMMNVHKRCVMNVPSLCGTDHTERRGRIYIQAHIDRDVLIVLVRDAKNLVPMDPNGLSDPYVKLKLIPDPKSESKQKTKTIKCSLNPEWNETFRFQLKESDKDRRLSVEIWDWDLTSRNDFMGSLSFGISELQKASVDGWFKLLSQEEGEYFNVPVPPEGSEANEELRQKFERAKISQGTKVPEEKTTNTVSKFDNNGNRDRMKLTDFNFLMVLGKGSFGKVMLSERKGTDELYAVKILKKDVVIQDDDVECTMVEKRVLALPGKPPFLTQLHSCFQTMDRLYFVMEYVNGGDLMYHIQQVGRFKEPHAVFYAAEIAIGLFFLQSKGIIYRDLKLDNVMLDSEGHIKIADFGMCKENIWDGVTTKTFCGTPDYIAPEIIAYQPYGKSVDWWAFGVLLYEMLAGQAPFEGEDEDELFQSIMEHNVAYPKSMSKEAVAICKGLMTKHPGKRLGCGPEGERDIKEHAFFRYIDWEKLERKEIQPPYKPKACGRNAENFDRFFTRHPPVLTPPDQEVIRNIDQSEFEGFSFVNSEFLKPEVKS
Format: biochemical
Protocol: Determination of PKC βII Inhibition
PKC βII inhibition was determined according to the following protocol:
Active human full-length recombinant PKC βII and the peptide substrate, Fluorescein-RFARKGSLRQKNV, were purchased from Invitrogen GmbH, Darmstadt, Germany. Adenosine-5′-triphosphate (ATP), bovine serum albumine (BSA), dimethylsulphoxide (DMSO), 4-(2-hydroxyethyl)piperazine-1-ethanesulfonic acid (Hepes), Triton X-100, 1,2-Dioleoyl-sn-glycerol (DAG), L-α-Phosphatidyl-L-serine (PS), calcium chloride (CaCl2), and Pluronic F-68 were purchased from Sigma-Aldrich, Munich, Germany. Magnesium chloride, 1 M sodium hydroxide solution, 1M hydrochloric acid solution and EDTA were obtained from Merck Biosciences, Darmstadt, Germany.
Test compounds were diluted to three times the test concentration in buffer 1 (30 mM Hepes-NaOH, pH 7.4, 0.01% Pluronic F-68 and 3% (v/v) DMSO). The […] enzyme was diluted to a concentration of 30 ng/ml in buffer 2 (30 mM Hepes-NaOH, pH 7.4, 15 mM MgCl2, 150 μM CaCl2, 150 μg/ml PS, 60 μg/ml DAG, and 0.045% (w/v) Triton X-100). The peptide substrate and ATP were diluted to concentrations of 3 μM and 120 μM, respectively, in buffer 2. Two μl of the compound solution were mixed with 2 μl of the diluted enzyme in a 384-well small volume microtiter plate (Greiner, Bio-One, Frickenhausen, Germany), and the kinase reaction was initiated by addition of 2 μl of the solution containing peptide substrate and ATP. After 60 min incubation at 32° C., the reaction was stopped by addition of 20 μl of a solution containing 130 mM Hepes-NaOH, pH 7.4, 0.0195% (v/v) Brij-35, 6.5 mM EDTA, 0.13% chip coating reagent 3 (Caliper Lifescience Inc, Hopkinton, Mass.) and 6.5% (v/v) DMSO. Phosphorylation of the substrate peptide was then detected on a Caliper 3000 instrument essentially as described by Pommereau et al (J. Biomol. Screening 2004, 9(5), 409-416). Separation conditions were as follows: Pressure −0.8 psi, upstream voltage −3000 V, downstream voltage −800 V. Positive controls (buffer 1 instead of compound) and negative controls (buffer 1 instead of compound and buffer 2 instead of kinase solution) were run in parallel on each plate. Fractional turnover (R) was determined as the height of the peak of the phosphorylated peptide product divided by the sum of the unphosphorylated substrate and phosphorylated product peak heights. Percent-inhibition values for the test compounds were determined using the formula % Inhibition=100*(1−(Rcompound−Rnegative control)/(Rpositive control−Rnegative control).
In the following table % inhibition values observed with example compounds at a final concentration of 1.14 μM (±0.15 μM) are listed: […]

| % Inhibition | inhibition at 1.14 µM | SMILES |
| --- | --- | --- |
| 90% |  | Cc1n[nH]c2nc(-c3ccc(O)cc3F)cc(CN3C[C@@H](c4ccccc4)NC[C@@H]3C)c12 (relative stereo) [Example 29, 3-Fluoro-4-[3-methyl-4-(trans-2-methyl-5-phenyl-piperazin-1-ylmethyl)-1H-pyrazolo[3,4-b]pyridin-6-yl]-phenol] |
| 58% |  | Cc1n[nH]c2nc(-c3ccc(O)cc3)cc(CN3C[C@@H](C)NC[C@@H]3c3ccccc3)c12 (relative stereo) [Example 43, 4-[3-Methyl-4-(trans-5-methyl-2-phenyl-piperazin-1-ylmethyl)-1H-pyrazolo[3,4-b]pyridin-6-yl]-phenol] |
|  | 99% | Cc1n[nH]c2nc(-c3ccc(O)cc3F)cc(CN3CC(C)NCC34CCCC4)c12 (centres unmarked) [Example 16, 3-Fluoro-4-[3-methyl-4-(8-methyl-6,9-diaza-spiro[4.5]dec-6-ylmethyl)-1H-pyrazolo[3,4-b]pyridin-6-yl]-phenol] |
|  | 98% | Cc1n[nH]c2nc(-c3ccc(O)cc3F)cc(CN3CCNCC34CCC4)c12 [Example 17, 4-[4-(5,8-Diaza-spiro[3.5]non-5-ylmethyl)-3-methyl-1H-pyrazolo[3,4-b]pyridin-6-yl]-3-fluoro-phenol] |
|  | 98% | CCC1(CC)CNCCN1Cc1cc(-c2ccc(O)cc2F)nc2[nH]nc(C)c12 [Example 18, 4-[4-(2,2-Diethyl-piperazin-1-ylmethyl)-3-methyl-1H-pyrazolo[3,4-b]pyridin-6-yl]-3-fluoro-phenol] |
|  | 99% | Cc1n[nH]c2nc(-c3ccc(O)cc3F)cc(CN3CC(C)NCC3C(F)(F)F)c12 (centres unmarked) [Example 19, 3-Fluoro-4-[3-methyl-4-(5-methyl-2-trifluoromethyl-piperazin-1-ylmethyl)-1H-pyrazolo[3,4-b]pyridin-6-yl]-phenol] |
|  | 98% | Cc1n[nH]c2nc(-c3ccc(O)cc3F)cc(CN3CC(C(C)C)NCC3(C)C)c12 (centres unmarked) [Example 20, 3-Fluoro-4-[4-(5-isopropyl-2,2-dimethyl-piperazin-1-ylmethyl)-3-methyl-1H-pyrazolo[3,4-b]pyridin-6-yl]-phenol] |
|  | 93% | CCC1(C)CN(Cc2cc(-c3ccc(O)cc3F)nc3[nH]nc(C)c23)C(C)(C)CN1 (centres unmarked) [Example 21, 4-[4-(5-Ethyl-2,2,5-trimethyl-piperazin-1-ylmethyl)-3-methyl-1H-pyrazolo[3,4-b]pyridin-6-yl]-3-fluoro-phenol] |
|  | 89% | CCC1(CC)CN(Cc2cc(-c3ccc(O)cc3F)nc3[nH]nc(C)c23)C(C)(C)CN1 [Example 22, 4-[4-(5,5-Diethyl-2,2-dimethyl-piperazin-1-ylmethyl)-3-methyl-1H-pyrazolo[3,4-b]pyridin-6-yl]-3-fluoro-phenol] |
|  | 99% | Cc1n[nH]c2nc(-c3ccc(O)cc3F)cc(CN3CC(C)(C4CC4)NCC3(C)C)c12 (centres unmarked) [Example 23, 4-[4-(5-Cyclopropyl-2,2,5-trimethyl-piperazin-1-ylmethyl)-3-methyl-1H-pyrazolo[3,4-b]pyridin-6-yl]-3-fluoro-phenol] |
|  | 94% | Cc1n[nH]c2nc(-c3ccc(O)cc3F)cc(CN3CCCC(C)(N)C3)c12 (centres unmarked) [Example 24, 4-[4-(3-Amino-3-methyl-piperidin-1-ylmethyl)-3-methyl-1H-pyrazolo[3,4-b]pyridin-6-yl]-3-fluoro-phenol] |
|  | 102% | Cc1n[nH]c2nc(-c3ccc(O)cc3F)cc(CN3CCCNC(C)C3)c12 (centres unmarked) [Example 25, 3-Fluoro-4-[3-methyl-4-(3-methyl-[1,4]diazepan-1-ylmethyl)-1H-pyrazolo[3,4-b]pyridin-6-yl]-phenol] |
|  | 92% | Cc1n[nH]c2nc(-c3ccc(O)cc3F)cc(CN3CCNCC3(C)C)c12 [Example 26, 4-[4-(2,2-Dimethyl-piperazin-1-ylmethyl)-3-methyl-1H-pyrazolo[3,4-b]pyridin-6-yl]-3-fluoro-phenol] |
|  | 83% | Cc1n[nH]c2nc(-c3ccc(O)cc3F)cc(CN3C[C@@H](C)NC[C@@H]3C)c12 [Example 27, 4-[4-((2S,5R)-2,5-Dimethyl-piperazin-1-ylmethyl)-3-methyl-1H-pyrazolo[3,4-b]pyridin-6-yl]-3-fluoro-phenol] |

Second part, the molecule before the results:

| SMILES | % Inhibition | inhibition at 1.14 µM |
| --- | --- | --- |
| Cc1n[nH]c2nc(-c3ccc(O)cc3F)cc(CN3CCNCC3c3ccccc3)c12 (centres unmarked) [Example 1, 3-Fluoro-4-[3-methyl-4-(2-phenyl-piperazin-1-ylmethyl)-1H-pyrazolo[3,4-b]pyridin-6-yl]-phenol] |  | 95% |
| Cc1n[nH]c2nc(-c3ccc(O)cc3F)cc(CN3CCNCC3c3ccc(C(C)C)cc3)c12 (centres unmarked) [Example 2, 3-Fluoro-4-{4-[2-(4-isopropyl-phenyl)-piperazin-1-ylmethyl]-3-methyl-1H-pyrazolo[3,4-b]pyridin-6-yl}-phenol] |  | 65% |
| Cc1n[nH]c2nc(-c3ccc(O)cc3F)cc(CN3CCNCC3c3ccc(C(F)(F)F)cc3)c12 (centres unmarked) [Example 3] |  | 68% |
| Cc1n[nH]c2nc(-c3ccc(O)cc3F)cc(CN3CCNCC3c3ccc(F)cc3)c12 (centres unmarked) [Example 4, 3-Fluoro-4-{4-[2-(4-fluoro-phenyl)-piperazin-1-ylmethyl]-3-methyl-1H-pyrazolo[3,4-b]pyridin-6-yl}-phenol] |  | 94% |
| Cc1n[nH]c2nc(-c3ccc(O)cc3F)cc(CN3CCNCC3C(F)(F)F)c12 (centres unmarked) [Example 5, 3-Fluoro-4-[3-methyl-4-(2-trifluoromethyl-piperazin-1-ylmethyl)-1H-pyrazolo[3,4-b]pyridin-6-yl]-phenol] |  | 109% |
| Cc1n[nH]c2nc(-c3ccc(O)cc3F)cc(CN3CCNCC3c3cccc(F)c3)c12 (centres unmarked) [Example 6, 3-Fluoro-4-{4-[2-(3-fluoro-phenyl)-piperazin-1-ylmethyl]-3-methyl-1H-pyrazolo[3,4-b]pyridin-6-yl}-phenol] |  | 91% |
| Cc1n[nH]c2nc(-c3ccc(O)cc3F)cc(CN3CCNCC34CCCC4)c12 [Example 7, 4-[4-(6,9-Diaza-spiro[4.5]dec-6-ylmethyl)-3-methyl-1H-pyrazolo[3,4-b]pyridin-6-yl]-3-fluoro-phenol] |  | 103% |
| Cc1n[nH]c2nc(-c3ccc(O)cc3F)cc(CN3CCNCC3c3cccc(C(F)(F)F)c3)c12 (centres unmarked) [Example 8, 3-Fluoro-4-{3-methyl-4-[2-(3-trifluoromethyl-phenyl)-piperazin-1-ylmethyl]-1H-pyrazolo[3,4-b]pyridin-6-yl}-phenol] |  | 92% |
| Cc1n[nH]c2nc(-c3ccc(O)cc3F)cc(CN3CCNCC3c3cc(F)cc(F)c3)c12 (centres unmarked) [Example 9, 4-{4-[2-(3,5-Difluoro-phenyl)-piperazin-1-ylmethyl]-3-methyl-1H-pyrazolo[3,4-b]pyridin-6-yl}-3-fluoro-phenol] |  | 81% |
| Cc1n[nH]c2nc(-c3ccc(O)cc3F)cc(CN3CCNCC3c3ccccc3F)c12 (centres unmarked) [Example 10, 3-Fluoro-4-{4-[2-(2-fluoro-phenyl)-piperazin-1-ylmethyl]-3-methyl-1H-pyrazolo[3,4-b]pyridin-6-yl}-phenol] |  | 102% |
| Cc1n[nH]c2nc(-c3ccc(O)cc3F)cc(CN3CC(C)NCC3(C)C)c12 (centres unmarked) [Example 11, 3-Fluoro-4-[3-methyl-4-(2,2,5-trimethyl-piperazin-1-ylmethyl)-1H-pyrazolo[3,4-b]pyridin-6-yl]-phenol] |  | 104% |
| Cc1n[nH]c2nc(-c3ccc(O)cc3F)cc(CN3CCNCC3(C)c3ccccc3)c12 (centres unmarked) [Example 12, 3-Fluoro-4-[3-methyl-4-(2-methyl-2-phenyl-piperazin-1-ylmethyl)-1H-pyrazolo[3,4-b]pyridin-6-yl]-phenol] |  | 94% |
| Cc1n[nH]c2nc(-c3ccc(O)cc3F)cc(CN3CCNCC3)c12 [Example 13, 3-Fluoro-4-(3-methyl-4-piperazin-1-ylmethyl-1H-pyrazolo[3,4-b]pyridin-6-yl)-phenol] |  | 81% |
| Cc1n[nH]c2nc(-c3ccc(O)cc3F)cc(CN3CCNCC34CC4)c12 [Example 14, 4-[4-(4,7-Diaza-spiro[2.5]oct-4-ylmethyl)-3-methyl-1H-pyrazolo[3,4-b]pyridin-6-yl]-3-fluoro-phenol] |  | 98% |
| Cc1n[nH]c2nc(-c3ccc(O)cc3F)cc(CN3CC(C)(C)NCC34CCCC4)c12 [Example 15, 4-[4-(8,8-Dimethyl-6,9-diaza-spiro[4.5]dec-6-ylmethyl)-3-methyl-1H-pyrazolo[3,4-b]pyridin-6-yl]-3-fluoro-phenol] |  | 96% |
